Reference: patent US11795460B2, “Compositions and methods for TTR gene editing and treating ATTR amyloidosis” (Intellia Therapeutics, Inc., priority 2017, dated 2023)

Test system: TTR
Assay: TTR editing in primary cyno hepatocytes electroporated with Spy Cas9 protein and dgRNAs (Tables 10, 11)
Type: cell-based, cynomolgus monkey
Conditions: primary cyno hepatocytes electroporated with Spy Cas9 protein (RNP) and cyno specific dgRNAs
Method: Primary liver hepatocytes. Primary human liver hepatocytes (PHH) and primary cynomolgus liver hepatocytes (PCH) (Gibco) were cultured per the manufacturer's protocol (Invitrogen, protocol 11.28.2012). In brief, the cells were thawed and resuspended in hepatocyte thawing medium with supplements (Gibco, Cat. CM7000) followed by centrifugation at 100 g for 10 minutes for human and 80 g for 4 minutes for cyno. The supernatant was discarded and the pelleted cells resuspended in hepatocyte plating medium plus supplement pack (Invitrogen, Cat. A1217601 and CM3000). Cells were counted and plated on Bio-coat collagen I coated 96-well plates (ThermoFisher, Cat. 877272) at a density of 33,000 cells/well for human or 60,000 cells/well for cyno (or 65,000 cells/well when assaying effects on TTR protein, described further below). Plated cells were allowed to settle and adhere for 6 or 24 hours in a tissue culture incubator at 37° C. and 5% CO2 atmosphere. After incubation cells were checked for monolayer formation and media was replaced with hepatocyte culture medium with serum-free supplement pack (Invitrogen, Cat. A1217601 and CM4000).
[…] formation was performed prior to electroporation or transfection of Spy Cas9 protein loaded with guide RNAs (RNPs) onto cells. For dual guide (dgRNAs), individual crRNA and trRNA was pre-annealed by mixing equivalent amounts of reagent and incubating at 95° C. for 2 min and cooling to room temperature. Single guide (sgRNAs) were boiled at 95° C. for 2 min and cooling to room temperature. The boiled dgRNA or sgRNA was incubated with Spy Cas9 protein in Optimem for 10 minutes at room temperature to form a ribonucleoprotein (RNP) complex.
For RNP electroporation into primary human and cyno hepatocytes, the cells are thawed and resuspended in Lonza electroporation Primary Cell P3 buffer at a concentration of 2500 cells per μL for human hepatocytes and 3500 cells per μL for cyno hepatocytes. A volume of 20 μL of resuspended cells and 5 μL of RNP are mixed together per guide. 20 μL of the mixture is placed into a Lonza electroporation plate. The cells were electroporated using the Lonza nucleofector with the preset protocol EX-147. Post electroporation, the cells are transferred into a Biocoat plate containing pre-warmed maintenance media and placed in a tissue culture incubator at 37° C. and 5% CO2.
Transfected cells were harvested post-transfection at 24, 48, or 72 hours. The genomic DNA was extracted from each well of a 96-well plate using 50 μL/well BuccalAmp DNA Extraction solution (Epicentre, Cat. QE09050) per manufacturer's protocol. All DNA samples were subjected to PCR and subsequent NGS analyses, as described herein.
To quantitatively determine the efficiency of editing at the target location in the genome, sequencing was utilized to identify the presence of insertions and deletions introduced by gene editing.
Primers were designed around the target site within the gene of interest (e.g. TTR), and the genomic area of interest was amplified.
Additional PCR was performed per the manufacturer's protocols (Illumina) to add chemistry for sequencing. The amplicons were sequenced on an Illumina MiSeq instrument. The reads were aligned to a reference genome (e.g., the human reference genome (hg38), the cynomologus reference genome (mf5), the rat reference genome (rn6), or the mouse reference genome (mm10)) after eliminating those having low quality scores. The resulting files containing the reads were mapped to the reference genome (BAM files), where reads that overlapped the target region of interest were selected and the number of wild type reads versus the number of reads which contain an insertion, substitution, or deletion was calculated.
The editing percentage (e.g., the “editing efficiency” or “percent editing” or “indel frequency”) is defined as the total number of sequence reads with insertions/deletions (“indels”) or substitutions over the total number of sequence reads, including wild type. […]

Sequence: AAGUGACUUCCAGUAAGAUU (tested as dual guide RNA, chemistry not given here) [CR005371]
- Avg % Deletion: 8.10%
- Avg % Edit: 8.42%
- Avg % Insert: 0.31%

Sequence: ACACAAAUACCAGUCCAGCG (tested as dual guide RNA, chemistry not given here) [CR000689]
- Avg % Deletion: 6.30%
- Avg % Edit: 24.41%
- Avg % Insert: 18.11%

Sequence: ACUUGUCUUCUCUAUACCCA (tested as dual guide RNA, chemistry not given here) [CR005370]
- Avg % Deletion: 62.93%
- Avg % Edit: 63.52%
- Avg % Insert: 0.59%

Sequence: AUACCAGUCCAGCGAGGCAG (tested as dual guide RNA, chemistry not given here) [CR005366]
- Avg % Deletion: 76.67%
- Avg % Edit: 77.00%
- Avg % Insert: 0.33%

Sequence: CAUUGACAGCAGGACUGCCU (tested as dual guide RNA, chemistry not given here) [CR005365]
- Avg % Deletion: 64.85%
- Avg % Edit: 64.94%
- Avg % Insert: 0.10%

Sequence: CCAGUCCAGCGAGGCAGAGG (tested as dual guide RNA, chemistry not given here) [CR005367]
- Avg % Deletion: 50.26%
- Avg % Edit: 50.79%
- Avg % Insert: 0.53%

Sequence: CCUCCUCUGCCUCGCUGGAC (tested as dual guide RNA, chemistry not given here) [CR005368]
- Avg % Deletion: 27.27%
- Avg % Edit: 27.60%
- Avg % Insert: 0.33%
